Results taken from patent US20220411380A1, “ACID ADDITION SALT OF RORy REGULATOR” (JIANGSU HENGRUI MEDICINE CO., LTD., priority 2019, published 2022).
Values belong to the compound of their own block, whether it stands above or below them.

Assays:
RORγ LBD-GST tagged = molecular target: T1, RORγ LBD-GST tagged (Homo sapiens, UniProt P51449); experiment: LanthaScreen TR-FRET RORγ-LBD and co-activation peptide biochemical assay; conditions: Fluorescein-D22 coactivator, read-out: RORγ coactivation assay (IC50)
T1 construct: RORγ LBD-GST tagged (Cat No. RORC-114H, Creative Biomart); purchased Creative Biomart RORC-114H
T1 sequence (P51449 269-508 limits assumed): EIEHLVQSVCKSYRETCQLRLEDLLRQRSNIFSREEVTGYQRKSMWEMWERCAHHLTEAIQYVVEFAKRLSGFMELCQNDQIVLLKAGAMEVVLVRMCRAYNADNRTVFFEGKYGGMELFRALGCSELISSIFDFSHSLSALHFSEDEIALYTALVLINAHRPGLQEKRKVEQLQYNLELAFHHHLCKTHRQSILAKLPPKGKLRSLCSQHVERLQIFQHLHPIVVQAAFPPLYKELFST
Experimental: Test Example 1. Biochemical Assay of LanthaScreen TR-FRET RORγ-LBD and Co-Activation Peptide
Complete TR-FRET Coregulator Buffer D was prepared by diluting 1 M DTT with TR-FRET Coregulator Buffer D to a final concentration of 5 mM DTT. The compounds were diluted in Complete TR-FRET Coregulator Buffer D. The solutions were serially 7-fold diluted from an initial concentration of 3 μM to the 7th concentration. 10 μL of the dilutions was added to each well of the 384-well plate. For negative and positive controls, 10 μL of Complete TR-FRET Coregulator Buffer D was added.
A RORγ LBD solution was prepared using Complete TR-FRET Coregulator Buffer D. The final concentration of the RORγ LBD solution in each reaction was 25 ng. Other than the negative wells receiving 5 μL of Complete TR-FRET Coregulator Buffer D, 5 μL of the RORγ LBD solution was added to the remaining wells of the 384-well assay plate.
Complete TR-FRET Coregulator Buffer D was used to prepare a solution containing 0.6 μM Fluorescein-D22 and 8 nM Tbanti-GST antibody, and 5 μL of the prepared solution was added to all wells of the 384-well assay plate. […]
The plate was measured on a Tecan Infinite M1000 plate reader at wavelengths of 520 nm and 495 nm. IC50 values were calculated using GraphPad Prism by plotting log compound concentration versus percentage inhibition.

[1] = system: IL-17A production in human peripheral blood mononuclear cells; experiment: Inhibition of cytokine IL-17A production in human peripheral blood mononuclear cells; assay type: cell-based; conditions: 72 h; human PBMC, cytostim, 3 days, IL-17A ELISA
Experimental: Test Example 2. Assay for Inhibiting Cytokine IL-17A Production in Human Peripheral Blood Mononuclear Cells
Frozen human peripheral blood mononuclear cells (PBMCs) were rapidly thawed in a pre-warmed lymphocyte medium and centrifuged at 1000 rpm for 10 min. The cell culture supernatant was discarded, and the cells were gently suspended in the TexMACS medium and counted. T cell activating reagent cytostim (10 μL/mL) was added to the cell suspension in certain proportions, and then the cells were seeded in a 96-well cell culture plate at a density of 1×10^5 PBMCs/well. Test compounds were diluted in gradient using TexMACS medium and added to the treatment wells in 2-3 replicates. Negative control wells containing cells only without cytostim were prepared to obtain background readings. The cell culture plate was incubated in a 5% carbon dioxide/37° C. incubator for 3 days. Cell culture supernatant was collected 3 days after treatment and centrifuged to remove the suspended matter. IL-17A in the supernatant was then quantified using an IL-17A enzyme-linked immunosorbent assay kit. […]
In the calculation equation, inhibition % is inhibition rate; OD(NC) is the reading of cells in negative control groups with no cytostim and no compound; OD(PC) is the reading of cells in positive control groups with cytostim but no compound; OD(compound) is the reading of cells with cytostim and compound.

[2] = Influencing factor study of amorphous form of compound of formula II; assay type: physicochemical
Experimental: A sample of the amorphous form of the compound of formula II (Example 4) was let stand open to examine the stability of the sample in conditions of heating (40° C. and 60° C.), illumination (4500 Lux) and high humidity (RH 75% and RH 90%) in a period of 30 days.

[3] = Long-term/accelerated stability study of amorphous form of compound of formula II; assay type: physicochemical
[4] = as above; assay type: physicochemical; remark: listed apart in the source
Experimental: The amorphous form of the compound of formula II (Example 4) was subjected to a long-term (25° C., 60% RH)/accelerated (40° C., 75% RH) stability study with a period of 3 months.

- IC50 (RORγ LBD-GST tagged): 13 nM
- IC50 [1]: 10 nM
SMILES: NC(=O)C[C@H](c1ccc(S(=O)(=O)CC2CC2)cc1)c1nc2cc(-c3ccccc3OC(F)F)c(Cl)cc2[nH]1 (single isomer, unassigned) [compound of formula II]

- Amorphous form Purity (%) ([2]; 40° C., 5 days): 99.93%
- Color and appearance ([2]; 40° C., 5 days): White solid
- Amorphous form Purity (%) ([2]; 40° C., 10 days): 99.90%
- Chiral purity ([2]; 40° C., 10 days): 99.4
- Color and appearance ([2]; 40° C., 10 days): White solid
- Amorphous form Purity (%) ([2]; 40° C., 30 days): 99.92%
- Chiral purity ([2]; 40° C., 30 days): 99.5
- Color and appearance ([2]; 40° C., 30 days): White solid
- Amorphous form Purity (%) ([2]; 60° C., 5 days): 99.95%
- Color and appearance ([2]; 60° C., 5 days): White solid
- Amorphous form Purity (%) ([2]; 60° C., 10 days): 99.95%
- Chiral purity ([2]; 60° C., 10 days): 99.4
- Color and appearance ([2]; 60° C., 10 days): White solid
- Amorphous form Purity (%) ([2]; 60° C., 30 days): 99.95%
- Chiral purity ([2]; 60° C., 30 days): 99.4
- Color and appearance ([2]; 60° C., 30 days): White solid
- Amorphous form Purity (%) ([2]; 4500 Lux, 5 days): 99.91%
- Color and appearance ([2]; 4500 Lux, 5 days): White solid
- Amorphous form Purity (%) ([2]; 4500 Lux, 10 days): 99.91%
- Chiral purity ([2]; 4500 Lux, 10 days): 99.3
- Color and appearance ([2]; 4500 Lux, 10 days): White solid
- Amorphous form Purity (%) ([2]; 4500 Lux, 30 days): 99.93%
- Chiral purity ([2]; 4500 Lux, 30 days): 99.3
- Color and appearance ([2]; 4500 Lux, 30 days): White solid
- Stability (conclusion of influencing factor study) ([2]; 30 days, illumination, 40° C., 60° C., high humidity of 75% and 90%): good chemical stability
- Amorphous form Purity (%) ([2]; Initial, 0 days): 99.91%
- Chiral purity ([2]; Initial, 0 days): 99.4
- Color and appearance ([2]; Initial, 0 days): White solid
- Amorphous form Purity (%) ([2]; RH 75%, 5 days): 99.92%
- Color and appearance ([2]; RH 75%, 5 days): White solid
- Weight gain (%) ([2]; RH 75%, 5 days): 10.42%
- Amorphous form Purity (%) ([2]; RH 75%, 10 days): 99.90%
- Chiral purity ([2]; RH 75%, 10 days): 99.3
- Color and appearance ([2]; RH 75%, 10 days): White solid
- Weight gain (%) ([2]; RH 75%, 10 days): 13.2%
- Amorphous form Purity (%) ([2]; RH 75%, 30 days): 99.90%
- Chiral purity ([2]; RH 75%, 30 days): 99.4
- Color and appearance ([2]; RH 75%, 30 days): White solid
- Weight gain (%) ([2]; RH 75%, 30 days): 23.24%
- Amorphous form Purity (%) ([2]; RH 90%, 5 days): 99.91%
- Color and appearance ([2]; RH 90%, 5 days): White solid
- Weight gain (%) ([2]; RH 90%, 5 days): 21.67%
- Amorphous form Purity (%) ([2]; RH 90%, 10 days): 99.92%
- Chiral purity ([2]; RH 90%, 10 days): 99.4
- Color and appearance ([2]; RH 90%, 10 days): White solid
- Weight gain (%) ([2]; RH 90%, 10 days): 26.49%
- Amorphous form Purity (%) ([2]; RH 90%, 30 days): 99.89%
- Chiral purity ([2]; RH 90%, 30 days): 99.4
- Color and appearance ([2]; RH 90%, 30 days): White solid
- Weight gain (%) ([2]; RH 90%, 30 days): 37.24%
- Chiral purity Initial ([3]; 5° C., Initial): 99.2
- Purity Initial ([3]; 5° C., Initial): 99.87
- Purity (%) Month 1 ([3]; 5° C., Month 1): 99.86%
- Purity (%) Month 2 ([3]; 5° C.): 99.86%
- Chiral purity (%) Month 3 ([3]; 5° C.): 99.1%
- Purity (%) Month 3 ([3]; 5° C.): 99.85%
- Chiral purity (%) Month 3 ([3]; 25° C., 60% RH): 99.2%
- Purity (%) Month 3 ([3]; 25° C., 60% RH): 99.85%
- Purity Initial ([3]; 40° C., 75% RH, Initial): 99.87
- Purity (%) Month 2 ([3]; 40° C., 75% RH): 99.86%
- Stability (conclusion of long-term/accelerated study) ([4]; 25° C., 60% RH and 40° C., 75% RH, 3 months): good chemical stability
- Chiral purity Initial ([4]; 25° C., 60% RH, Initial): 99.2
- Purity Initial ([4]; 25° C., 60% RH, Initial): 99.87
- Purity (%) Month 1 ([4]; 25° C., 60% RH): 99.86%
- Purity (%) Month 2 ([4]; 25° C., 60% RH, Month 2): 99.86%
- Chiral purity Initial ([4]; 40° C., 75% RH, Initial): 99.2
- Purity (%) Month 1 ([4]; 40° C., 75% RH): 99.87%
- Chiral purity (%) Month 3 ([4]; 40° C., 75% RH, Month 3): 99.1%
- Purity (%) Month 3 ([4]; 40° C., 75% RH, Month 3): 99.88%
SMILES: NC(=O)C[C@H](c1ccc(S(=O)(=O)CC2CC2)cc1)c1nc2cc(-c3ccccc3OC(F)F)c(Cl)cc2[nH]1 [amorphous form of compound of formula II]
